# Entries after “also recorded” stand apart in the source; their conditions may differ.
# Experiments:
# HEK293 cells = assay: Growth of HEK293 cells monitored with the dye WST (cytotoxicity); format: cell-based, human
# Protocol: HEK293 cells were seeded into 96-well plates at the densities indicated. Their growth rates were monitored using the dye WST, which is cleaved by mitochondrial dehydrogenases to a […] dye only in viable cells.
# [1] = tested on: Pseudomonas exotoxin A (PEA) in HEK293 cells; assay: Protection of HEK293 cells from death caused by Pseudomonas exotoxin A (WST); format: cell-based, human
# From the text: Pseudomonas exotoxin A (PEA) must be cleaved by furin at the cell surface to gain entry into a cell, which typically causes cell death. […] We inferred that the D6R blocked the cleavage of PEA by furin, thus preventing its activation.
# HIV = assay: Formation of syncytia by HIV in vitro in MT4 T cells; format: cell-based; conditions: micromolar concentrations, MT4 line of T cells, preliminary data (not shown)
# From the text: The administration of polyarginines and other polybasic peptides in accordance with the present invention may be used to combat bacterial and viral infections, and to inhibit the growth of certain cancers. Preliminary data, for example, show activity against Pseudomonas exotoxin, and against HIV.
structure (smiles),measurement,setting,value
N=C(N)NCCC[C@@H](NC(=O)[C@H](N)CCCN=C(N)N)C(=O)N[C@H](CCCNC(=N)N)C(=O)N[C@H](CCCNC(=N)N)C(=O)N[C@H](CCCNC(=N)N)C(=O)N[C@H](CCCN=C(N)N)C(=O)O [Hexa-D-arginine],mean absorbance at 450 nm (WST),"HEK293 cells; HEK293, 2 μM D6R, 51 hour",0.69 ± 0.02
same,mean absorbance at 450 nm (WST),"HEK293 cells; HEK293, 2 μM D6R, 75 hour",1.25 ± 0.11
same,mean absorbance at 450 nm (WST),"HEK293 cells; HEK293, 2 μM D6R, 99 hour",1.42 ± 0.02
same,mean absorbance at 450 nm (WST),"HEK293 cells; HEK293, 4 μM D6R, 51 hour",0.64 ± 0.03
same,mean absorbance at 450 nm (WST),"HEK293 cells; HEK293, 4 μM D6R, 75 hour",1.28 ± 0.14
same,mean absorbance at 450 nm (WST),"HEK293 cells; HEK293, 4 μM D6R, 99 hour",1.39 ± 0.06
same,mean absorbance at 450 nm (WST),"HEK293 cells; HEK293, 6 μM D6R, 51 hour",0.63 ± 0.04
same,mean absorbance at 450 nm (WST),"HEK293 cells; HEK293, 6 μM D6R, 75 hour",1.13 ± 0.14
same,mean absorbance at 450 nm (WST),"HEK293 cells; HEK293, 6 μM D6R, 99 hour",1.48 ± 0.04
same,mean absorbance at 450 nm (WST),"HEK293 cells; HEK293, 8 μM D6R, 51 hour",0.67 ± 0.01
same,mean absorbance at 450 nm (WST),"HEK293 cells; HEK293, 8 μM D6R, 75 hour",1.36 ± 0.08
same,mean absorbance at 450 nm (WST),"HEK293 cells; HEK293, 8 μM D6R, 99 hour",1.40 ± 0.05
same,mean absorbance at 450 nm (WST),"HEK293 cells; HEK293, 10 μM D6R, 51 hour",0.64 ± 0.03
same,mean absorbance at 450 nm (WST),"HEK293 cells; HEK293, 10 μM D6R, 75 hour",1.28 ± 0.14
same,mean absorbance at 450 nm (WST),"HEK293 cells; HEK293, 10 μM D6R, 99 hour",1.49 ± 0.08
same,mean absorbance at 450 nm (WST),"HEK293 cells; HEK293, 30 μM D6R, 51 hour",0.64 ± 0.02
same,mean absorbance at 450 nm (WST),"HEK293 cells; HEK293, 30 μM D6R, 75 hour",1.29 ± 0.08
same,mean absorbance at 450 nm (WST),"HEK293 cells; HEK293, 30 μM D6R, 99 hour",1.45 ± 0.06
same,mean absorbance at 450 nm (WST),"HEK293 cells; HEK293, 60 μM D6R, 51 hour",0.66 ± 0.05
same,mean absorbance at 450 nm (WST),"HEK293 cells; HEK293, 60 μM D6R, 75 hour",1.17 ± 0.08
same,mean absorbance at 450 nm (WST),"HEK293 cells; HEK293, 60 μM D6R, 99 hour",1.48 ± 0.06
same,mean absorbance at 450 nm (WST),"HEK293 cells; HEK293, 100 μM D6R, 51 hour",0.62 ± 0.03
same,mean absorbance at 450 nm (WST),"HEK293 cells; HEK293, 100 μM D6R, 75 hour",1.19 ± 0.11
same,mean absorbance at 450 nm (WST),"HEK293 cells; HEK293, 100 μM D6R, 99 hour",1.47 ± 0.09
same,effect on growth of the cells,"HEK293 cells; HEK293 cells, 2-100 μM",did not significantly affect the growth of the cells
same,cytotoxicity,"HEK293 cells; HEK293 cells, up to 100 μM final concentration, preliminary data, listed as D6R",not toxic to cells; also recorded: did not appear to be cytotoxic
same,amount of WST (absorbance),"[1]; HEK293, 1 μM D6R + 10 ng/mL PEA, 51 hours",0.52 ± 0.04
same,amount of WST (absorbance),"[1]; HEK293, 1 μM D6R + 10 ng/mL PEA, 76 hours",0.85 ± 0.02
same,amount of WST (absorbance),"[1]; HEK293, 1 μM D6R + 10 ng/mL PEA, 86 hours",0.83 ± 0.02
same,amount of WST (absorbance),"[1]; HEK293, 1 μM D6R + 10 ng/mL PEA, 96 hours",0.56 ± 0.04
same,amount of WST (absorbance),"[1]; HEK293, 10 μM D6R + 10 ng/mL PEA, 51 hours",0.54 ± 0.07
same,amount of WST (absorbance),"[1]; HEK293, 10 μM D6R + 10 ng/mL PEA, 76 hours",0.73 ± 0.05
same,amount of WST (absorbance),"[1]; HEK293, 10 μM D6R + 10 ng/mL PEA, 86 hours",0.71 ± 0.02
same,amount of WST (absorbance),"[1]; HEK293, 10 μM D6R + 10 ng/mL PEA, 96 hours",0.67 ± 0.01
same,amount of WST (absorbance),"[1]; HEK293, 100 μM D6R + 10 ng/mL PEA, 51 hours",0.51 ± 0.04
same,amount of WST (absorbance),"[1]; HEK293, 100 μM D6R + 10 ng/mL PEA, 76 hours",0.78 ± 0.03
same,amount of WST (absorbance),"[1]; HEK293, 100 μM D6R + 10 ng/mL PEA, 86 hours",0.61 ± 0.06
same,amount of WST (absorbance),"[1]; HEK293, 100 μM D6R + 10 ng/mL PEA, 96 hours",0.55 ± 0.02
same,effect on cell death caused by PEA,"[1]; HEK293 cells, 10 ng/mL PEA, 1 μM final concentration",reduced the cell death caused by PEA
same,protection of cells from killing by exotoxin,"[1]; preliminary data, summary statement",able to protect cells from killing
same,formation of syncytia by HIV,HIV,inhibited the formation of syncytia

# Source: patent US7569547B2, “Inhibiting furin with polybasic peptides” (Board of Supervisors of Louisiana State University and …, priority 2001, dated 2009)
